The subject of one series is A673 cells. Description: Cell viability and proliferation, A673 cells (crystal violet). The series is classed as cell-based. Particulars: cell proliferation IC50 in NHDF cells over A673 cells, 72 h. As for the experimental part:
Small molecule splicing modulators were tested in a dose-response assay using A673 cells and NHDF cells.
A673 cells or NHDF cells were first plated in 96-well plastic tissue culture plates (10,000 cells per well). The cells were treated with vehicle alone (DMSO), or increasing concentrations of SMSM compounds for 72 h. Following treatment, cell proliferation was determined using a crystal violet assay. The relative cell proliferation at each concentration was determined.

Series [1] in a line: Maximum tolerable dose study (survival, body weight). Conditions: mice. The series is classed as in vivo. The protocol: Survival of mice after administration of SMSMs after 10 or 11 days was assessed.
Tolerance of the drug treatments was determined by measuring the weight of the mice during the period of drug administration. Body weight was measured prior to tumor inoculation and prior to the treatment administration and then daily. The changes in the final weight of the mice for the SMSM treatments were determined.

The test system of a further series is A673 xenografts. Description: A673 xenografts in nude mice, tumor growth inhibition. Conditions: A673 xenograft (FIGS. 14A-C). Format: in vivo. The protocol:
Dose range and time course studies comparing anti-neoplastic effects of SMSM−167 and SMSM−151 against vehicle were conducted.
Female NCrNu mice were used. Age range of enrolment was 7-10 weeks. A total of 75 animals were for the studies.
The A673 tumor cell line was maintained in vitro as a monolayer culture. […] The cells growing in an exponential growth phase were harvested and counted for tumor inoculation.
Each mouse were inoculated into a right flank with the single cell suspension of 95% viable tumor cells (5×10^6 cells/mouse) in serum-free RPMI 1640 Media for tumor development. Treatments were administered when mean tumor size reached approximately 75 mm^3.
Before commencement of treatment, all animals were weighed and assigned to treatment groups using a randomization procedure. Mice were randomized into groups based upon their tumor sizes to ensure that each group had approximately the same mean tumor size and range of tumor size.
After inoculation, the animals were checked daily for morbidity and mortality. At the time of routine monitoring, the animals were checked for any effects of tumor growth on normal behavior such as mobility, food and water consumption, body weight gain/loss, eye/hair matting and any other abnormal effects. Deaths and observed clinical signs were recorded.
Body weight were measured prior to tumor inoculation and prior to the treatment administration and then daily. Tumor size were measured 2-3 times per week in two dimensions using a caliper, and the volume were expressed in mm^3 using the formula: V=0.5×a×b^2 where a and b are the long and short diameters of the tumor, respectively.
(§1) Studies were terminated when the tumor size in the vehicle treated group reached 2,000 mm^3. Each mouse was bled at 2 hrs after the last dose and at least 50 μl of plasma were collected from each mouse. All of the collected plasma samples and retainer dosing solutions for each dose level were used for bioanalytical measurements. All tumors were also collected and weighed. One necrosis-free tumor fragment of approximately 50 mg was taken from each tumor and flash-frozen for RNA isolation. The remaining tumor was flash frozen for PK analysis.
Studies were performed to assess the effects of in vivo SMSM treatment on glioblastoma, breast, pancreatic, prostate, melanoma, lymphoma and Ewing sarcoma tumors. Studies were also performed to assess the effects of in vivo SMSM treatment on mRNA levels. Immunocompromised nude mice with pre-existing glioblastoma, breast, pancreatic, prostate, melanoma, lymphoma and Ewing sarcoma xenografts were treated with vehicle or SMSMs. Tumor tissues from subcutaneous xenografts were broken into a powder using a BioPulverizer (Biospec Products, Inc.). After SMSM treatment, mRNA was isolated from the xenografts and was analyzed by qRT-PCR.
as §1, with “Tumor size was measured 2 times per week in two dimensions using a caliper. Studies” for “Studies”, “plasma was” for “plasma were”
The effects of in vivo SMSM treatments on pre-existing subcutaneous glioblastoma, breast, pancreatic, prostate, melanoma, lymphoma and Ewing sarcoma xenografts were assessed. For these in vivo experiments, 1×10^6Raji, A375, A673, MDA-MB-231, BxPC-3, PC-3 or U87 (cells re-suspended in 100 μl PBS were subcutaneously injected into the flanks of nude mice. When the tumor reached approximately 100 mm^3 (volume=(¾)(π)(length/2)(width/2)^2), the treatments indicated in the tables below were initiated. […]

In the next series the test system is FoxM1 A mRNA. The series is described as follows: FoxM1 splicing in cells: FoxM1 A mRNA increase (exon excluded). Particulars: read-out: Splice EC50 (nM) FoxM1 A mRNA increase (exon excluded). The series is classed as cell-based. As for the experimental part: (§2) FIG. 7 depicts a graph of relative transcript levels of FOXM1 isoform A (represses cancer) and FOXM1 isoform B (promotes cancer) in A-673 cells incubated with the indicated concentrations of an SMSM.

Another series deals with A-673 cells. The series is described as follows: A-673 cell viability. The series is classed as cell-based. Particulars: Homo sapiens, A673. As for the experimental part:
FIG. 9A depicts a graph of viable A-673 cells when incubated with the indicated concentrations of an SMSM.

For another series, the system named is FoxM1 BC mRNA. Description: FoxM1 splicing in cells: FoxM1 BC mRNA decrease (exon included). Format: cell-based. Particulars: read-out: Splice IC50 (nM) FoxM1 BC mRNA decrease (exon included). The protocol: as §2
The next series deals with IKBKAP. The series is described as follows: IKBKAP splicing assay (IKBKAP^FL and IKBKAP^Δ20 mRNA, qPCR). Particulars: 24 hours. The series is classed as cell-based. The protocol:
Various cells lines were treated with the SMSMs described herein. RNA was then isolated, cDNA synthesized, qPCR performed and the levels of IKBKAP targets of the SMSMs were detemined.
On the day of the experiment, a 96-well plate was seeded with the cell lines of interest. The cells were diluted with full growth media to a concentration of 2.0×10^5 cells/mL and 100 μL of cells were added to each well (20,000 cells per well). The cells were treated with a compound immediately after plating.
The compounds were then added to the cell plate using the HP compound dispenser. In the initial experiment, atop concentration of 10 μM and an 8 point 4-fold dilution scheme was used. […]
The qPCR was performed using a QuantStudio 6 instrument (ThermoFisher) and the following cycling conditions and according to the tables below. All samples and standards were analyzed in triplicate. […]
The determined IKBKAP^FL and IKBKAP^Δ20 isoform quantities were then used to determine the IKBKAP^FL: IKBKAP^Δ20 ratio at increasing SMSM compound concentrations. The PPIA quantities were used in the normalization to account of cell proliferation effects of the compounds.
An assay to measure the IKBKAP^FL mRNA and IKBKAP^Δ20 mRNA simultaneously in cell wells was performed. The RNA values were measured relative to DMSO control and also included a housekeeping gene, PPIA to ensure data was consistent. […]
On the technique in general: Real-time PCR tracks product formation cycle by cycle.

As a reminder, the EC50 is the concentration giving half of the maximal effect. For orientation: IC50 means the concentration at which inhibition is half-maximal.

Consider `CN(c1ccc(-c2cc(F)c(-c3cn[nH]c3)cc2O)nn1)[C@H]1C[C@]2(C)CC[C@](C)(C1)N2` [compound 167, 2-(6-(((1R,3s,5S)-1,5-dimethyl-8-azabicyclo[3.2.1]octan-3-yl)(methyl)amino)pyridazin-3-yl)-4-fluoro-5-(1H-pyrazol-4-yl)phenol], for which the “Ratio NHDF/A673 IC50” value in the series with A673 cells is on record as >2,500. In addition, the Outcome entry is reported as “All survived” in series [1] (IP, 0.1 mg/kg, BIDx12); “All survived” in series [1] (IP, 0.3 mg/kg, BIDx12); “All survived” in series [1] (IP, 1 mg/kg, QDx12); “All survived” in series [1] (PO, 5 mg/kg, QDx12). Also, the “TGI(%)” value with A673 xenografts (5 mg/kg BID PO, Day 7) came to 65.56%; with A673 xenografts (5 mg/kg BID PO, Day 11) it was 56.92%; in the series with A673 xenografts (5 mg/kg BID PO, Day 14), 55.14%; in the series on A673 xenografts (5 mg/kg BID PO, Day 18), 59.68%; with A673 xenografts (7.5 mg/kg BID PO, Day 7), 59.45%; in the series on A673 xenografts (7.5 mg/kg BID PO, Day 11) it was 64.75%. The “TGI(%)” value with A673 xenografts (7.5 mg/kg BID PO, Day 14) is recorded as 64.43%; in the series with A673 xenografts (7.5 mg/kg BID PO, Day 18), 72.80%; in the series on A673 xenografts (10 mg/kg QD PO, Day 7) it was −32.72%; in the series on A673 xenografts (10 mg/kg QD PO, Day 11), 3.85%; in the series on A673 xenografts (10 mg/kg QD PO, Day 14), −2.13%; in the series on A673 xenografts (10 mg/kg QD PO, Day 18), 41.77%.
As to `Oc1cc(C2C=NN=N2)ccc1-c1ccc(O[C@@H]2C[C@H]3CC[C@@H](C2)N3)nn1` (stereo partly drawn) [compound 253, 2-(6-(((1R,3s,5S)-8-azabicyclo[3.2.1]octan-3-yl)oxy)pyridazin-3-yl)-5-(1H-1,2,3-triazol-4-yl)phenol], in the series on FoxM1 A mRNA, the EC50 lay in the range of 251 to 500 nM. The IC50 in the series on A-673 cells lay within 501 to 1000 nM; in the series on FoxM1 BC mRNA, 251 to 500 nM.
In the series with A-673 cells, `Oc1cc(-c2cn[nH]c2)ccc1-c1ccc(O[C@@H]2C[C@H]3CCC[C@@H](C2)N3)nn1` [compound 276, 2-(6-(((1R,3s,5S)-9-azabicyclo[3.3.1]nonan-3-yl)oxy)pyridazin-3-yl)-5-(1H-pyrazol-4-yl)phenol] displayed an IC50 of 101 to 250 nM.
Consider `Oc1cc(-c2cn[nH]c2)ccc1-c1ccc(O[C@H]2C[C@H]3CCC[C@@H](C2)N3)nn1` [compound 277, 2-(6-(((1R,3r,5S)-9-azabicyclo[3.3.1]nonan-3-yl)oxy)pyridazin-3-yl)-5-(1H-pyrazol-4-yl)phenol], for which the EC50 with FoxM1 A mRNA is more than 1000 nM. The IC50 in the series on A-673 cells and in the series on FoxM1 BC mRNA was more than 1000 nM in each case.
`Oc1cc(-c2cn[nH]c2)c(F)cc1-c1ccc(O[C@@H]2C[C@H]3CCC[C@@H](C2)N3)nn1` [compound 278, 2-(6-(((1R,3s,5S)-9-azabicyclo[3.3.1]nonan-3-yl)oxy)pyridazin-3-yl)-4-fluoro-5-(1H-pyrazol-4-yl)phenol] gave an EC50 with IKBKAP (IKBKAP^FL mRNA increase) of 0.101 to 0.35 µM. The IC50 in the series on IKBKAP (IKBKAP^Δ20 mRNA decrease) was less than 0.2 µM.
